Test results published in US5846942A, “Cholecystokinin antagonists, their preparation and therapeutic use” (Warner-Lambert Company, priority 1996, dated 1998).

Each compound was assayed against T1, Central CCK Receptors (Mus musculus, UniProt P56481) (assay: Binding to central CCK receptors, displacement of tritiated pentagastrin from cerebral cortical membranes of male CFLP mice). Details: cerebral cortexes taken from male CFLP mice; 2 nM tritiated-pentagastrin.
T1 construct: from tissue; host or cells: cerebral cortex membranes of male CFLP mice (30-40 g)
T1 sequence (P56481 1-453): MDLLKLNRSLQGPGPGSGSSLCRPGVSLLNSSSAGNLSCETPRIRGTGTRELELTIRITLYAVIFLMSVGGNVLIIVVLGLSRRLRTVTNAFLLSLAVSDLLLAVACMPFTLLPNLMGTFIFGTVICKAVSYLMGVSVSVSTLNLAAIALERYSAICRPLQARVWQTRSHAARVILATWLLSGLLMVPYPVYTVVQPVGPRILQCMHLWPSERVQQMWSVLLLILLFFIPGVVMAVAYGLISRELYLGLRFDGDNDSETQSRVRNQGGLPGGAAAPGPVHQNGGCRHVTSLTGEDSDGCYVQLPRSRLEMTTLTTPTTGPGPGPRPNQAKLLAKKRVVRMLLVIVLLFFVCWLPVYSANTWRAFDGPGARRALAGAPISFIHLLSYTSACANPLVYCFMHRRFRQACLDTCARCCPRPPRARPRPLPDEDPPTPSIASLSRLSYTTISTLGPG
Set-up: species or system mouse (male CFLP)
Protocol: The biological activity of compounds of the present invention was evaluated employing an initial screening test which rapidly and accurately measured the binding of the tested compound to known CCK receptor sites. […] (See Hays et al, Neuropeptides 1:53-62, 1980; and Satuer et al, Science 208:1155-1156, 1980).
In this screening test, the cerebral cortices taken from male CFLP mice weighing between 30-40 g were dissected on ice, weighed, and homogenized in 10 volumes of 50 mM Tris-HCl buffer (pH 7.4 at 0°-4° C.). The resulting suspension was centrifuged, the supernate was discarded, and the pellet was washed by resuspension in Tris-HCl buffer followed by recentrifugation. The final pellet was resuspended in 20 volumes of […] Hepes buffer (pH 7.2 at 23° C.) containing 130 mM NaCl, […] KCl, […] MgCl2, […] EDTA, 5 mg/mL bovine albumin, and bacitracin (0.25 mg/mL).
In saturation studies, cerebral cortical membranes were incubated at 23° C. for 120 minutes in a final volume of 500 μL of Hepes incubation buffer (pH 7.2) together with […] tritiated-pentagastrin (Amersham International, England).
In the displacement experiments, membranes were incubated with a single concentration (2 nM) of ligand, together with increasing concentrations (10^-11 to […]) of competitive test compound. In each case, the nonspecific binding was defined as that persisting in the presence of the unlabeled octapeptide CCK26-33 (10^-6 M)
Following incubation, radioactivity bound to membranes was separated from that free in solution by rapid filtration through Whatman GF/B filters and washed three times with 4 mL of ice cold Tris-HCl buffer. Filters from samples incubated with tritiated-pentagastrin were placed in polyethylene vials with 4 mL of scintillation cocktail, and the radioactivity was estimated by liquid scintillation spectrometry (efficiency 47-52%).
Saturation curves for specific tritiated- pentagastrin binding to mouse cortical membranes were analyzed by the methods of Scatchard (Ann. New York Acad. Sci. 51:660-672, 1949, and Hill (J. Physiol. 40:IV-VIII, 1910), to provide estimates for the maximum number of binding sites (Bmax) and the equilibrium dissociation constant (Ka).
In displacement experiments, inhibition curves were analyzed by either logit-log plots or the iterative curve fitting computer program ALLFIT (DeLean, Munson and Redbard, 1978) to provide estimates of the IC50 and nH (apparent Hill coefficient) values).
The inhibition constant (Ki) of the test compound was then calculated according to the Cheng-Prusoff equation: [formula] where [L] is the concentration of radiolabel and Ka is the equilibrium dissociation constant.

`C[C@@](Cc1c[nH]c2ccccc12)(NC(=O)OC1C2CC3CC(C2)CC1C3)C(=O)NCCC(=O)N[C@@H](Cc1ccccc1)C(=O)O` (stereo partly drawn) [Example 34, L-Phenylalanine, N-[N-[α-methyl-N-[(tricyclo-[3.3.1.1^3,7]dec-2-yloxy)carbonyl]-L-tryptophyl]-β-alanyl]-] and `C[C@@](Cc1c[nH]c2ccccc12)(NC(=O)OC1C2CC3CC(C2)CC1C3)C(=O)NCCC(=O)N[C@H](Cc1ccccc1)C(=O)O` (stereo partly drawn) [Example 35, Benzenepropanoic acid, α-[[3-[[3-[(1H-indol-3-yl)-2-methyl-1-oxo-2-[[(tricyclo[3.3.1.1^3,7]dec-2-yloxy)-carbonyl]amino]propyl]amino]-1-oxopropyllamino-, [S-(R*,S*)]-] are within 1.5-fold of each other in Ki: 560 nM for the first, 540 nM for the second.

Going from `C[C@](Cc1c[nH]c2ccccc12)(NC(=O)OC1C2CC3CC(C2)CC1C3)C(=O)NCC(=O)OCc1ccccc1` (stereo partly shown) [Example 36] to `C[C@](Cc1c[nH]c2ccccc12)(NC(=O)OC1C2CC3CC(C2)CC1C3)C(=O)N[C@H](C(=O)O)c1ccccc1` (stereo partly drawn) [Example 91, [R-(R*,S)]-α-[[3-(1H-indol-3-yl)-2-methyl-1-oxo-2-[[(tricyclo[3.3.1.1^3,7]dec-2-yloxy)carbonyl]amino]proipyl]amino]benzeneacetic acid, [R-(R*,S*)]-], the Ki rises from 50 nM to 110 nM (2.2-fold).

Going from `CC(CNC(=O)O[C@@H]1C[C@@H]2CC[C@@]1(C)C2(C)C)(Cc1c[nH]c2ccccc12)C(=O)N[C@H](COC(=O)CCC(=O)O)Cc1ccccc1` (stereo partly drawn) [Example 56, Butanedioic acid, mono 2-[[2-(1H-indol-3-ylmethyl)-2-methyl-1-oxo-3-[[(1,7,7-trimethylbicyclo[2.2.1]hept-2-yloxy)carbonyl]-amino]propyl]amino]-3-phenylpropyl ester (Bicyclo system is 1S-endo, phenvlmethyl center is S. other center is RS)] to `CC(CNC(=O)OC1C2CC3CC(C2)CC1C3)(Cc1c[nH]c2ccccc12)C(=O)N[C@H](COC(=O)CCC(=O)O)Cc1ccccc1` (stereo partly shown) [Example 57], the Ki rises from 23 nM to 93 nM (4-fold).

Compared with `N#CC(=Cc1c[nH]c2ccccc12)C(=O)NCCc1ccccc1` [Example 58], `C[C@](CC(=O)N[C@H](C(=O)O)c1ccccc1)(Cc1c[nH]c2ccccc12)NC(=O)OC1C2CC3CC(C2)CC1C3` (stereo partly drawn) [Example 90, N-[D-3-(1H-indol-3-ylmethyl)-3-methyl-N-[(tricyclo [3.3.1.1^3,7]dec-2-yloxy)carbonyl]-β-alanyl]-L-2-phenylglycine] is 8.6-fold higher in Ki: 110 nM for the first, 942 nM for the second. The first binds more tightly here.

First: COC[C@@H]1CCCN1NC(=O)[C@@](C)(Cc1c[nH]c2ccccc12)NC(=O)OC1C2CC3CC(C2)CC1C3 (stereo partly drawn) [Example 112, Tricyclo[3.3.1.1^3.7]dec-2-yl ester [2S-(R*,S*)1 N-[1-(1H-indol-3-ylmethyl)-2-[[2-(methoxymethyl)-1-pyrrolidinyl]amino]-1-methyl-2-oxoethyl]carbamate]
Second: COC[C@H]1CCCN1NC(=O)[C@@](C)(Cc1c[nH]c2ccccc12)NC(=O)OC1C2CC3CC(C2)CC1C3 (stereo partly drawn) [Example 113, Tricyclo [3.3.1.1^3,7]dec-2-yl [R-(R*,R*)]-[-(1H-indol-3-ylmethyl)-2-[[2-(methoxymethyl)-1-pyrrolidinyl]amino]-1-methyl-2-oxoethyl]carbamate]
The Ki of the first is 29-fold higher: 73 nM for the first, 2.5 nM for the second.

First: C[C@](Cc1c[nH]c2ccccc12)(NC(=O)OC1C2CC3CC(C2)CC1C3)C(=O)NC1CCCCC1C(=O)O (stereo partly drawn) [Example 115, [1S-[α(S*),2B]] and [1R-[α(R*),28β]]^sP 2-[[3-(1H-indol-3-yl)-2-methyl-1-oxo-2-[(tricyclo[3.3.1.1^3,7]dec-2-yloxy)carbonyl]amino]propyl]amino]cyclhexanecarboxylic acid]
Second: CC(Cc1c[nH]c2ccccc12)(NC(=O)OC1C2CC3CC(C2)CC1C3)C(=O)NC1CCCCC1C(=O)O (stereo not shown) [Example 121, 2-[[3-(1H-indol-3-yl)-2-methyl-1-oxo-2-[[(tricyclo-[3.3.1.1^3,7]dec-2-yloxy)carbonyl]amino]propyl]amino]cyclohexanecarboxylic acid]
The Ki of the first is 2-fold lower: 1 nM for the first, 2 nM for the second. The first binds more tightly here.

Going from `C[C@](Cc1c[nH]c2ccccc12)(NC(=O)OC1C2CC3CC(C2)CC1C3)C(=O)NC1CCCCC1C#N` (stereo partly shown) [Example 116, Carbamic acid [2-[(2-cyanocyclohexyl)amino]-1-(1H-indol-3-ylmethyl)-1-methyl-2-oxoethyl]-1H-tricyclo-[3.3.1.1^3,7]dec-2-yl ester] to `CC1CCCCC1NC(=O)C(C)(Cc1c[nH]c2ccccc12)NC(=O)OC1C2CC3CC(C2)CC1C3` (stereo not shown) [Example 117, Tricyclo[3.3.1.1^3,7]dec-2-yl ester[1-(1H-indol-3-ylmethyl)-1-methyl-2[(2-methylcyclohexyl)amino]-2-oxoethyl]carbamate], the Ki rises from 3.5 nM to 39 nM (11-fold). The first binds more tightly here.

Going from `C[C@](Cc1c[nH]c2ccccc12)(NC(=O)OC1C2CC3CC(C2)CC1C3)C(=O)NC1CC2CCC1C2` (stereo partly shown) [Example 118, Tricyclo[3.3.1.1^3,7]dec-2yl ester [2-(bicyclo[2.2.1]hept-2-ylamino)-1-(1H-indol-3-ylmethyl)-1-methyl-2-oxoethyl]carbamate] to `CNC(=O)C1CCCCC1NC(=O)[C@@](C)(Cc1c[nH]c2ccccc12)NC(=O)OC1C2CC3CC(C2)CC1C3` (stereo partly shown) [Example 123], the Ki falls from 53 nM to 17 nM (3.1-fold).

Compared with `C[C@](Cc1c[nH]c2ccccc12)(NC(=O)OC1C2CC3CC(C2)CC1C3)C(=O)NC1(CO)CCCC1` (stereo partly drawn) [Example 119, Tricyclo[3.3.1.1^3,7]dec-2-yl ester (R) [2-[[1-(hydroxymethyl)cyclopentyl]amino]-1-(1H-indol-3-ylmethyl)-1-methyl-2-oxoethyl]carbamate], `C[C@](Cc1c[nH]c2ccccc12)(NC(=O)OC1C2CC3CC(C2)CC1C3)C(=O)NC1(CO)CCCCC1` (stereo partly shown) [Example 122] is 3.1-fold lower in Ki: 180 nM for the first, 59 nM for the second. The second binds more tightly here.

`C[C@](Cc1c[nH]c2ccccc12)(NC(=O)OC1C2CC3CC(C2)CC1C3)C(=O)NC1(C(=O)O)CCCCC1` (stereo partly drawn) [Example 120, (R)-1-[[2-(1H-indol-3-ylmethyl)-2-methyl-1-oxo-2-[[(tricyclo[3.3.1.1^3,7]dec-2-yloxy)carbonyl]amino]ethyl]amino]cyclohexanoic acid] was tested, and the Ki was 40 nM.
